System: Staphylococcus aureus strains including MSSA and MRSA strains
Assay: Vancomycin in modified BMD method versus standard unsupplemented CA-MHB (FIG. 10)
Format: cell-based
Details: comparison of the two media
Description: FIG. 10 depicts vancomycin activity assessed using the modified BMD method in comparison to method with standard CAMHB broth unsupplemented. Various Staphylococcus aureus strains including MSSA and MRSA strains were evaluated.
Standard antibiotic vancomycin was evaluated in the modified BMD method. The MIC50, MIC90 and range were equivalent using standard CA-MHB versus CA-MHB supplemented with horse serum and DTT (FIG. 10).

Structure (SMILES): CN[C@H](CC(C)C)C(=O)N[C@H]1C(=O)N[C@@H](CC(N)=O)C(=O)N[C@H]2C(=O)N[C@H]3C(=O)N[C@H](C(=O)N[C@H](C(=O)O)c4cc(O)cc(O)c4-c4cc3ccc4O)[C@H](O)c3ccc(c(Cl)c3)Oc3cc2cc(c3O[C@@H]2O[C@H](CO)[C@@H](O)[C@H](O)[C@H]2O[C@H]2C[C@](C)(N)[C@H](O)[C@H](C)O2)Oc2ccc(cc2Cl)[C@H]1O [vancomycin]
- MIC50, MIC90 and range, standard CA-MHB versus CA-MHB supplemented with horse serum and DTT: equivalent

From patent US10851401B2, “Broth microdilution method for evaluating and determining minimal inhibitory concentration of antibacterial polypeptides” (priority 2016, dated 2020)
